In ChEMBL document CHEMBL5223185, “Squaramide Tethered Clindamycin, Chloroquine, and Mortiamide Hybrids: Design, Synthesis, and Antimalarial Activity” (ACS Med Chem Lett, 2023):
Square brackets hold non-standard residues; d marks the D form. Peptide text beside a SMILES is read from it.

How the values were obtained:
[1] = Hemolytic activity in human RBC assessed as hemolysis at 0.39 to 12.8 uM incubated for 72 hrs by microplate reader assay; type: toxicity, cell-based; settings: erythrocyte, dose 0.39-12.8 µM
Plasmodium falciparum [2] = assay: Antiplasmodial activity against sorbitol-synchronized post ring stage plasmodium falciparum 3D7 assessed as inhibition of parasite growth incubated for 72 to 96 hrs by parasite susceptibility based microplate reader assay; type: functional, organism-based
Plasmodium falciparum [3] = assay: Antiplasmodial activity against sorbitol-synchronized post ring stage chloroquine, mefloquine and pyrimethamine resistant plasmodium falciparum Dd2 assessed as inhibition of parasite growth incubated for 72 to 96 hrs by parasite susceptibility based microplate reader assay; type: functional, organism-based
[4] = Fold resistance,ratio of IC50 for antiplasmodial activity against chloroquine, mefloquine and pyrimethamine resistant plasmodium falciparum Dd2 to IC50 for antiplasmodial activity against plasmodium falciparum 3D7; type: functional

In the case of CCN(CCN)CCCC(C)Nc1ccnc2cc(Cl)ccc12 (configuration not stated), the Activity [1] is reported as “Non-Toxic”, the IC50 (Plasmodium falciparum [2]) is reported as 16.7 nM and the IC50 (Plasmodium falciparum [3]) is reported as 285 nM. For the same compound, the Ratio [4] was 17.1.
With CCN(CCCC(C)Nc1ccnc2cc(Cl)ccc12)CCN=[N+]=[N-] (configuration not stated) the Activity [1] was “Non-Toxic”, the IC50 (Plasmodium falciparum [2]) was 2.8 nM and the IC50 (Plasmodium falciparum [3]) was 18 nM. For the same compound, the Ratio [4] was 6.5.
With CC[C@@H](C)[C@H]1NC(=O)[C@@H](C)NC(=O)[C@H](Cc2ccccc2)NC(=O)[C@@H](CC(C)C)NC(=O)[C@@H](C(C)C)NC(=O)[C@H](Cc2ccccc2)NC(=O)[C@@H]([C@H](C)CC)NC1=O (cyclo(F[dA][dI][dI]F[dV][dL])) the IC50 (Plasmodium falciparum [2]) was 1310 nM, the IC50 (Plasmodium falciparum [3]) was 940 nM and the Ratio [4] was 0.7.
In the case of CCOc1c(NCCN(CC)CCCC(C)Nc2ccnc3cc(Cl)ccc23)c(=O)c1=O (configuration not stated), the Activity [1] is reported as “Non-Toxic”, the IC50 (Plasmodium falciparum [2]) is reported as 63.8 nM and the IC50 (Plasmodium falciparum [3]) is reported as 1060 nM. The Ratio [4] was 16.6.
For CCN(CCCC(C)Nc1ccnc2cc(Cl)ccc12)CCNc1c(NCCCC[C@H](NC(C)=O)C(=O)OC)c(=O)c1=O (some centres not stated), the Activity [1] was “Non-Toxic”, the IC50 (Plasmodium falciparum [2]) was 223 nM and the IC50 (Plasmodium falciparum [3]) was 680 nM. For the same compound, the Ratio [4] was 3.
With CCC[C@@H]1C[C@@H](C(=O)N[C@@H]([C@H]2O[C@H](SC)[C@H](O)[C@@H](O)[C@H]2O)[C@H](C)Cl)N(C)C1 [CLINDAMYCIN] the IC50 (Plasmodium falciparum [2]) was 8.81 nM.
For CCC[C@@H]1C[C@@H](C(=O)N[C@@H]([C@H]2O[C@H](SC)[C@H](O)[C@@H](O)[C@H]2O)[C@@H](C)N=[N+]=[N-])N(C)C1, the Activity [1] was “Non-Toxic”, the IC50 (Plasmodium falciparum [2]) was 29.4 nM and the IC50 (Plasmodium falciparum [3]) was 28.6 nM. The Ratio [4] was 1.
With CCN(CCCC(C)Nc1ccnc2cc(Cl)ccc12)CCNc1c(NCCN(CC)CCCC(C)Nc2ccnc3cc(Cl)ccc23)c(=O)c1=O (configuration not stated) the Activity [1] was “Non-Toxic”, the IC50 (Plasmodium falciparum [2]) was 31.3 nM and the IC50 (Plasmodium falciparum [3]) was 80.9 nM. It also gave a Ratio [4] of 2.6.
For CCC[C@@H]1CC(C(=O)N[C@@H](C2O[C@H](SC)[C@H](O)[C@@H](O)[C@H]2O)[C@@H](C)Nc2c(NCCN(CC)CCCC(C)Nc3ccnc4cc(Cl)ccc34)c(=O)c2=O)N(C)C1 (some centres not stated), the Activity [1] was “Non-Toxic”, the IC50 (Plasmodium falciparum [2]) was 129 nM and the IC50 (Plasmodium falciparum [3]) was 1010 nM. The Ratio [4] was 7.8.
